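Protocol summary: plate cells (96-well), add compound at 5 concentrations, incubate 48 h, interpolate endpoints linearly. At the GI50, growth is halved. Definition used: TGI = concentration required for complete inhibition of growth.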
Experiments:
Assay in all cases: inhibition of tumour cell growth, NCI panel, 48 h
RXF-631 renal = test system: RXF-631 renal
DMS 273 small cell lung = test system: DMS 273 small cell lung
SNB-78 CNS = test system: SNB-78 CNS
M19-MEL melanoma = test system: M19-MEL melanoma
NCI/ADR-RES ovarian = test system: NCI/ADR-RES ovarian
T-47D breast = test system: T-47D breast
MDA-N = test system: MDA-N
HS 578T breast = test system: HS 578T breast
MCF7 breast = test system: MCF7 breast

CCCNCc1nc2ccc(Br)cc2c(=O)n1CCC
TGI (RXF-631 renal): 19 µM
TGI (DMS 273 small cell lung): 25.2 µM
TGI (SNB-78 CNS): 40.6 µM
TGI (M19-MEL melanoma): 26.1 µM

N=C(N)SCCc1cn2ccccc2n1
TGI (DMS 273 small cell lung): > 100 µM
TGI (SNB-78 CNS): > 100 µM
TGI (M19-MEL melanoma): > 100 µM

CC1=CC(C)(C)N=C2SC(c3ccc(Cl)cc3)=NN12
TGI (DMS 273 small cell lung): > 100 µM
TGI (SNB-78 CNS): > 100 µM
TGI (M19-MEL melanoma): > 100 µM

O=[N+]([O-])c1ccccc1N=Nc1c(O)[nH]c2ccccc12
TGI (NCI/ADR-RES ovarian): > 58.8 µM
TGI (T-47D breast): > 100 µM
TGI (MDA-N): > 100 µM
TGI (HS 578T breast): > 100 µM
TGI (MCF7 breast): > 100 µM

CC(C)=CCc1c(O)cc(/C=C/c2cc(O)c3c(c2)C[C@@H]2C(C)(C)[C@H](O)[C@H](O)C[C@@]2(C)O3)cc1O
GI50 (NCI/ADR-RES ovarian): 1.38 µM
TGI (NCI/ADR-RES ovarian): 7.43 µM
GI50 (T-47D breast): 1.85 µM
TGI (T-47D breast): > 9.39 µM
GI50 (MDA-N): 1.27 µM
TGI (MDA-N): > 10 µM
GI50 (HS 578T breast): < 0.001 µM
TGI (HS 578T breast): > 2.21 µM
GI50 (MCF7 breast): 0.00718 µM
TGI (MCF7 breast): 0.831 µM

CO[C@@H]1[C@@H](OC2OC(C)C(OC3CC(C)(O)C(OC(=O)CC(C)C)C(C)O3)C(N(C)C)C2O)[C@@H](CC=O)C[C@@H](C)C(=O)/C=C/C2O[C@H]2C[C@@H](C)OC(=O)C[C@H]1OC(C)=O (some centres undefined)
TGI (NCI/ADR-RES ovarian): 98.9 µM
TGI (T-47D breast): 84.4 µM
TGI (MDA-N): 29.8 µM
TGI (HS 578T breast): > 100 µM
TGI (MCF7 breast): 30.7 µM

O=C1CCCC/C1=C/C=C/c1ccccc1
TGI (RXF-631 renal): > 100 µM
TGI (M19-MEL melanoma): > 100 µM

CC(C)C(=O)N[C@@H](C)C(=O)N(Cc1ccc2ccccc2c1)N=O
TGI (DMS 273 small cell lung): > 100 µM
TGI (SNB-78 CNS): > 100 µM
TGI (M19-MEL melanoma): > 100 µM

CCc1c2c(nc3cc4c(cc13)OCO4)-c1cc3c(c(=O)n1C2)COC(=O)[C@@]3(CC)OC(=O)CN
GI50 (NCI/ADR-RES ovarian): < 0.01 µM
TGI (NCI/ADR-RES ovarian): < 0.0104 µM
GI50 (T-47D breast): < 0.01 µM
TGI (T-47D breast): 0.512 µM
GI50 (MDA-N): < 0.01 µM
TGI (MDA-N): 2.18 µM
GI50 (HS 578T breast): 0.13 µM
GI50 (MCF7 breast): < 0.01 µM
TGI (MCF7 breast): < 0.0346 µM

CCCCCCCCCCCC(=O)OCC1OC(n2cc(F)c(=O)[nH]c2=O)C(N)C(OC(=O)CCCCCCCCCCC)C1O (centres undefined)
TGI (DMS 273 small cell lung): > 100 µM
TGI (SNB-78 CNS): > 100 µM
TGI (M19-MEL melanoma): > 100 µM

CC1(O)CC2C(CC1SCCO)C2(C)C (centres undefined)
TGI (DMS 273 small cell lung): > 100 µM
TGI (SNB-78 CNS): > 100 µM
TGI (M19-MEL melanoma): > 100 µM

CC(=O)O[C@@H]1CO[C@H]2O[C@H]3[C@@H](C(C=O)=C[C@H](O)[C@@H]4C5=C(C(C)C)CC[C@]5(C)CC[C@@]34C)[C@@]2(O)C1=O
TGI (NCI/ADR-RES ovarian): 1.06 µM
TGI (T-47D breast): 0.378 µM
TGI (MDA-N): 0.415 µM
TGI (HS 578T breast): 0.594 µM
TGI (MCF7 breast): 1.69 µM

O=Cc1ccc(-c2ccc(-c3ccc(C=O)s3)o2)s1
TGI (DMS 273 small cell lung): > 100 µM
TGI (NCI/ADR-RES ovarian): > 100 µM
TGI (SNB-78 CNS): > 100 µM
TGI (MDA-N): > 100 µM
TGI (M19-MEL melanoma): > 100 µM

Cc1ccccc1C(=O)Oc1ccc(Oc2ccccc2)cc1
TGI (DMS 273 small cell lung): > 100 µM
TGI (SNB-78 CNS): > 100 µM
TGI (M19-MEL melanoma): > 100 µM

CC(=O)OC1CC2CCC1(C)C2(C)C (centres undefined)
TGI (NCI/ADR-RES ovarian): > 100 µM
TGI (T-47D breast): > 100 µM
TGI (MDA-N): > 100 µM
TGI (HS 578T breast): > 100 µM
TGI (MCF7 breast): > 100 µM

Nc1ccc(Nc2nc(F)nc(-c3c4ccccc4c4n3CCS4)n2)cc1
TGI (RXF-631 renal): 32.3 µM
TGI (DMS 273 small cell lung): 24 µM
TGI (SNB-78 CNS): > 100 µM
TGI (M19-MEL melanoma): 40.5 µM

Cc1ccc(C)c(NC(=O)c2cc(-c3ccc([N+](=O)[O-])cc3)nc(N)n2)c1
TGI (DMS 273 small cell lung): > 100 µM
TGI (M19-MEL melanoma): > 100 µM

CCOC(=O)/N=C(\N)SCc1ccccc1
TGI (RXF-631 renal): > 100 µM
TGI (DMS 273 small cell lung): > 100 µM
TGI (SNB-78 CNS): > 100 µM
TGI (M19-MEL melanoma): > 100 µM

COc1ccc(C(c2ccc(C(C)C)cc(=O)c2O)c2c(O)cc3oc(-c4ccccc4)cc(=O)c3c2O)cc1 (centres undefined)
TGI (RXF-631 renal): > 100 µM
TGI (DMS 273 small cell lung): 22 µM
TGI (SNB-78 CNS): > 100 µM
TGI (M19-MEL melanoma): 26.7 µM

COc1cc(-c2[nH]ccc2Cl)oc1C1=C2N=C3C=C2C(C(C)C)C1CCCCCCCC3 (centres undefined)
TGI (DMS 273 small cell lung): 1.48 µM
TGI (SNB-78 CNS): 15.5 µM
TGI (MDA-N): 1.75 µM
TGI (HS 578T breast): 1.41 µM
TGI (M19-MEL melanoma): 1.59 µM

C=C1CC(CCCl)(c2ccccc2)OC1=O (centres undefined)
TGI (RXF-631 renal): > 62.8 µM
TGI (DMS 273 small cell lung): > 100 µM
TGI (SNB-78 CNS): > 81.8 µM
TGI (M19-MEL melanoma): > 54.9 µM

Cc1c(C(=O)/C=C/c2ccc(Cl)cc2)[n+](=O)c2ccccc2n1[O-]
TGI (RXF-631 renal): > 100 µM
TGI (DMS 273 small cell lung): 25.4 µM
TGI (SNB-78 CNS): > 100 µM
TGI (M19-MEL melanoma): 30 µM

CC(c1ccc(Br)cc1)C(C(=O)O)C(=O)O (centres undefined)
TGI (DMS 273 small cell lung): > 100 µM
TGI (SNB-78 CNS): > 100 µM
TGI (M19-MEL melanoma): > 100 µM

COC(CCP(=O)(c1ccccc1)c1ccccc1)(C(=O)c1ccccc1)c1ccccc1 (centres undefined)
GI50 (NCI/ADR-RES ovarian): 4.93 µM
TGI (NCI/ADR-RES ovarian): 20.9 µM
GI50 (T-47D breast): 2.06 µM
TGI (T-47D breast): 12.3 µM
GI50 (HS 578T breast): 4.81 µM
TGI (HS 578T breast): 23.1 µM
GI50 (MCF7 breast): 2.39 µM
TGI (MCF7 breast): 11.3 µM

COc1cc(OC)c2c(=O)c(O)c(-c3ccc(OC)c(OC)c3)oc2c1
TGI (NCI/ADR-RES ovarian): 17.5 µM
TGI (T-47D breast): 31.4 µM
TGI (MDA-N): > 100 µM
TGI (HS 578T breast): 70.9 µM
TGI (MCF7 breast): > 31.6 µM

C(=C\c1csnn1)/c1cccnc1
TGI (RXF-631 renal): > 100 µM
TGI (SNB-78 CNS): > 100 µM
TGI (M19-MEL melanoma): > 100 µM

O=c1c2ccc3cccc4c(=O)cc(c5ccccc15)-c2c34
TGI (DMS 273 small cell lung): > 100 µM
TGI (M19-MEL melanoma): 54 µM

C=C=C(C)[Si](C)(C)C
TGI (NCI/ADR-RES ovarian): > 100 µM
TGI (T-47D breast): > 100 µM
TGI (MDA-N): > 100 µM
TGI (HS 578T breast): > 100 µM
TGI (MCF7 breast): > 100 µM

Cn1c(CCC#N)nc2ccc(Br)cc2c1=O
TGI (RXF-631 renal): > 100 µM

O=c1/c(=C/c2ccc(Cl)cc2Cl)sc2nc3ccccc3n12
TGI (RXF-631 renal): > 100 µM
TGI (DMS 273 small cell lung): > 100 µM
TGI (SNB-78 CNS): > 100 µM
TGI (M19-MEL melanoma): > 100 µM

O=C1OC(c2ccc(O)c(-c3ccccc3)c2)(c2ccc(O)c(-c3ccccc3)c2)c2c(Cl)c(Cl)c(Cl)c(Cl)c21
TGI (NCI/ADR-RES ovarian): > 100 µM
TGI (T-47D breast): > 100 µM
TGI (MDA-N): > 100 µM
TGI (HS 578T breast): > 100 µM
TGI (MCF7 breast): > 100 µM

O=C(Nc1c(-c2nc3ccccc3[nH]2)sc(=S)n1-c1ccccc1)c1ccccc1
TGI (RXF-631 renal): > 100 µM
TGI (DMS 273 small cell lung): > 100 µM
TGI (SNB-78 CNS): > 100 µM
TGI (M19-MEL melanoma): > 100 µM

CCCCCCCCCCCCCCCC(=O)OCC(O)C1OC(=O)C(O)=C1O (centres undefined)
TGI (NCI/ADR-RES ovarian): 79.8 µM
TGI (T-47D breast): > 100 µM
TGI (MDA-N): 94.6 µM
TGI (MCF7 breast): 4.81 µM

Cc1nn(C(=O)c2ccc(Cl)cc2)c2c1C(c1ccc([N+](=O)[O-])cc1)SC(N)=N2 (centres undefined)
TGI (NCI/ADR-RES ovarian): > 10 µM
TGI (T-47D breast): > 10 µM
TGI (MDA-N): > 10 µM
TGI (HS 578T breast): > 10 µM
TGI (MCF7 breast): > 10 µM

— PubChem BioAssay (NCI)
